Values of other authors in paper PMC11575912 (Journal of Clinical Oncology, 2024).

Legend:
[1] = test system: p110α over the β, δ, and γ isoforms; conditions: biochemical assays
[2] = once daily
CYP = conditions: in vitro or in the human mass balance study; ref unpublished data on file

## C[C@H](Nc1ccc2c(c1)OCCn1cc(N3C(=O)OC[C@H]3C(F)F)nc1-2)C(N)=O [inavolisib]
[1]
  Selectivity for p110α over the β, δ, and γ isoforms: > 300 fold
[2]
  Single-agent maximum tolerable dose: 9 mg
CYP
  CYP-mediated metabolism: did not undergo extensive CYP-mediated metabolism
